{
  "source": "patent US20230365988A1",
  "about": "“MOUSE MODEL FOR BIO-IMAGING OF INFLAMMATORY SIGNALS, PREPARATION METHOD THEREFOR AND USE THEREOF” (KOREA MOUSE PHENOTYPING CENTER, priority 2020, published 2023)",
  "key": {"[1]": {"system": "NF-κB", "test": "PMA-induced ear edema model, luciferase imaging", "format": "in vivo", "settings": "2 μg PMA on left ear twice at a 24 hour interval, measured 24 hours later, Lyz2-Cre reporter mouse", "protocol": "To confirm imaging of inflammatory signals in the mouse model established in Example <2-1>, ear edema was induced by treatment with PMA (phorbol 12-myristate 13-acetate), an inflammatory factor.\nParticularly, the left ear of the mouse was treated with 2 μg/40 ? of PMA diluted in ethanol using a micropipette, and the right ear was treated with the same amount of ethanol (40 ? ). After 24 hours, the left ear was treated with 2 μg of PMA, and the right ear was treated with the same amount of ethanol (40 ? ). After another 24 hours, 100 ? of D-luciferin (15 mg/ml in PBS) was intraperitoneally administered using a 1 ml syringe, and luciferase signals were measured in the ears of the mouse under respiratory anesthesia with isoflurane."}, "[2]": {"system": "NF-κB", "test": "Luciferase activity in LPS-treated bone marrow-derived macrophages of the myeloid-specific NF-κB reporter mouse", "format": "cell-based", "settings": "6 hours", "protocol": "(§1) Macrophages, mononuclear cells, derived from the bone marrow of the mouse model established in Example <2-1> were differentiated, luciferase activity was confirmed, and NF-κ activity and luciferase protein expression were confirmed by Western blotting. In addition, 20 uM BAY 11-7082 (NF-kB inhibitor) was treated simultaneously with LPS in the same manner as above to evaluate the luciferase activity.\nParticularly, the mouse was euthanized with CO2, the femur and tibia were obtained, and the bone marrow cavity was exposed. Then, RPMI 1640 culture medium (10% FBS, 1% penicillin, stretptomycin) containing M-CSF was passed through using a 1 ml syringe, and the contents were collected to make 6 ml of the culture medium. Thereafter, the contents were transferred to a Petri dish and cultured for 3 days at 37° C. under 5% CO2 conditions, and then the medium was replaced with fresh RPMI 1640 culture medium. After 3 days, the culture medium was removed from the Petri dish and washed with PBS (phosphate buffered saline). […] After 6 hours, the culture medium was removed, and 100 μl of HBSS (Hanks' Balanced Salt solution) containing D-luciferin was added to each well of the plate, and then the luciferase activity was evaluated."}, "[3]": {"system": "NF-κB", "test": "DSS-induced colitis model, luciferase imaging", "format": "in vivo", "settings": "3% DSS as drinking water, days 3 and 5, Lyz2-Cre reporter mouse", "protocol": "Colitis was induced by DSS (dextran sulfate sodium salt) in the mouse model established in Example <2-1>, and it was confirmed whether bio-imaging of inflammatory signals over time was possible.\nParticularly, 6 g of DSS was added to sterilized tertiary distilled water and stirred for 60 minutes to prepare a 3% DSS aqueous solution. […] After the measurement, the 3% DSS aqueous solution was supplied as drinking water to the mice. While maintaining DSS supply, 100 ? of D-luciferin (15 mg/ ? in PBS) was intraperitoneally administered using a 1 ? syringe on the days after 3 and 5 days after the start of DSS supply, and luciferase signals were measured in the abdomen."}, "[4]": {"system": "NF-κB", "test": "Western blotting of luciferase expression in LPS-treated bone marrow-derived macrophages", "format": "cell-based, mouse", "settings": "LPS 10 ng/ml and 100 ng/ml, 6 hours", "protocol": "as §1\nFor Western blotting, the detached cells were diluted in RPMI 1640 culture medium, and then distributed in a 6 well plate at the density of 70,000 cells/well, followed by culture. After 24 hours of culture, the experimental group was treated with LPS at the concentrations of 10 ng/ml and 100 ng/ml for 6 hours. The culture medium was removed and homogenized with a buffer containing 20 mM Tris-HCl (pH 7.4), 1% Triton X-100, 15 mM NaCl and protease inhibition cocktail, and centrifuged at 4° C., 13,000 g for 20 minutes. Then, SDS-PAGE (sodium dodecyl sulfate-polyacrylamide gel electrophoresis) was performed using the supernatant to separate proteins. The separated proteins were transferred to a PVDF membrane and blocked with TBST buffer (Tris-Buffered Saline, 0.1% TWEEN 20) containing 5% skim milk powder. […]"}},
  "note": "“Also recorded” adds a separate entry of the source.",
  "data": [
    {"molecule": "CCCCCCCCCCCCCC(=O)O[C@@H]1[C@@H](C)[C@@]2(O)[C@@H](C=C(CO)C[C@]3(O)C(=O)C(C)=C[C@@H]23)[C@@H]2C(C)(C)[C@]12OC(C)=O", "note": "[PMA, phorbol 12-myristate 13-acetate]", "values": [
      {"measurement": "luciferase signal in treated left ear compared to ethanol-treated right ear", "setting": "[1]", "value": "specifically strong"}
    ]},
    {"molecule": "Cc1ccc(S(=O)(=O)/C=C/C#N)cc1", "note": "[BAY 11-7082]", "values": [
      {"measurement": "LPS-increased luciferase signal activity (NF-kB activity) after inhibitor treatment", "setting": "[2]; 20 uM BAY 11-7082 simultaneously with LPS (10 and 100 ng/ml)", "value": "inhibited; also recorded: suppressed"}
    ]},
    {"molecule": "dextran sulfate sodium salt [DSS]", "values": [
      {"measurement": "luciferase signal in the large intestine region of the abdomen", "setting": "[3]", "value": "strongly expressed"}
    ]},
    {"molecule": "lipopolysaccharide [LPS]", "values": [
      {"measurement": "luciferase expression by Western blotting", "setting": "[4]", "value": "luciferase expression was increased"},
      {"measurement": "luciferase signal activity", "setting": "[2]; LPS 10 ng/ml and 100 ng/ml", "value": "increased by LPS dose-dependently"}
    ]}
  ]
}
